Assay results from PMC4404319 (ACS Chemical Neuroscience, 2015).
“Also recorded” adds a separate entry of the source.

Columns and labels:
P-gp = assay: in vitro; settings: human, Caco-2
in vitro = settings: rat, liver microsomes, pH 7.4
Caco-2 / P-gp = assay: Caco-2 two-way permeability / P-gp substrate; settings: Caco-2, second of two values given 'respectively'
BCRP = assay: in vitro; settings: dog
C57BL/6 mice = assay: Modified SHIRPA adverse pharmacology screen; assay type: in vivo; settings: 50 and 150 mg/kg, 24 h observation
MAO-A = target: T1, MAO-A (Homo sapiens, UniProt P21397); assay: Monoamine oxidase inhibition; settings: 0.01–25 μM
T1 sequence (P21397 1-527): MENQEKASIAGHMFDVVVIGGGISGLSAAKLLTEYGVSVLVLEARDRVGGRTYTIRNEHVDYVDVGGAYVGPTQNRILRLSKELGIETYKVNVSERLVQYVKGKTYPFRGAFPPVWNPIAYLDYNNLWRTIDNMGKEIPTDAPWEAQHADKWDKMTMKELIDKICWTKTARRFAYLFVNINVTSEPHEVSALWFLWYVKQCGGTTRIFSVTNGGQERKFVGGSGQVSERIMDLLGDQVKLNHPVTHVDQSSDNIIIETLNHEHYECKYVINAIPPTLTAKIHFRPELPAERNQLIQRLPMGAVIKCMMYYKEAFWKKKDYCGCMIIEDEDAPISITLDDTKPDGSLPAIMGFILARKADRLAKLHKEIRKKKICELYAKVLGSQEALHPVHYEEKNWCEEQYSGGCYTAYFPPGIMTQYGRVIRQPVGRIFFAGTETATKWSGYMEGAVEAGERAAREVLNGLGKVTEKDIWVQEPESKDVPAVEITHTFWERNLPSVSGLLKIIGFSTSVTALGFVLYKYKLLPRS

[1] = tested on: APP/PS1 transgenic (Tg) mouse; assay: Behavior in APP/PS1 transgenic mice, preventative paradigm
in vivo = settings: male, Sprague-Dawley, rat, 5 mg/kg
MDCK / BCRP = assay: BCRP-MDCK two-way permeability / BCRP substrate
[2] = tested on: Salmonella typhimurium TA98 and TA100; assay: Ames bacterial reverse mutation assay; settings: ± metabolic activation, up to 5 μg/plate
Chemical stability = assay type: physicochemical; settings: pH 1–13, 24 h, 37 °C
MAO-B = target: T2, MAO-B (Homo sapiens, UniProt P27338); assay: Monoamine oxidase inhibition; settings: 0.01–25 μM
T2 sequence (P27338 1-520): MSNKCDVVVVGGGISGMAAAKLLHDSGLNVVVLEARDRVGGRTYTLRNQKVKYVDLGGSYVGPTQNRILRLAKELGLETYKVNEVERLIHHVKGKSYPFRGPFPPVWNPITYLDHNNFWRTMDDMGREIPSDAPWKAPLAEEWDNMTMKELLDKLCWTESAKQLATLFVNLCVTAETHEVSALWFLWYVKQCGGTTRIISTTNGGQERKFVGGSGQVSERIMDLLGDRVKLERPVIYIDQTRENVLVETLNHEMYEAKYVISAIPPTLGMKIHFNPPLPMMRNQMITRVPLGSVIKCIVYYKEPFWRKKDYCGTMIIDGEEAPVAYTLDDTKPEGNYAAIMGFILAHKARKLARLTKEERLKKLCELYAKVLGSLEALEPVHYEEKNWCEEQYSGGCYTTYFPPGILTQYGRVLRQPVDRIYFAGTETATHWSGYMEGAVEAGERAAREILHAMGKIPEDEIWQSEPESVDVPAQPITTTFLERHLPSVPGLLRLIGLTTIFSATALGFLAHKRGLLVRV

166 GPCRs = assay: Functional GPCR agonist and antagonist screen, whole panel; assay type: cell-based; settings: agonist 12 500 nM, antagonist 10 000 nM
[3] = 2.5 mg/kg, oral, daily, 8 weeks to 3–4 months of age

Compound CN1CCN(c2cc(-c3ccncc3)c(-c3ccc4ccccc4c3)nn2)CC1 [MW150, 6-(4-Methylpiperazin-1-yl)-3-(naphthalen-2-yl)-4-(pyridin-4-yl)pyridazine] has a Papp A→B at 2 h, 5 μM (P-gp) of 33.5 ×10⁻⁶ cm/s, a Papp B→A at 2 h, 5 μM (P-gp) of 31.2 ×10⁻⁶ cm/s and a recovery (P-gp) of 71%. For the same compound, the half-life at 1 μM (in vitro) was 43 ± 4 min, the microsomal CLint at 1 μM (in vitro) was 20 µL/min/mg and the “percent recovery, second value” (Caco-2 / P-gp) was 61%. It also gave a Papp A→B at 2 h, 5 μM (BCRP) of 20.7 ×10⁻⁶ cm/s, a Papp B→A at 2 h, 5 μM (BCRP) of 25.1 ×10⁻⁶ cm/s and a recovery (BCRP) of 66%. For the same compound, the “adverse pharmacology, clinical observation” value (C57BL/6 mice) was “no differences or adverse events were detected”, the MAO-A inhibition (MAO-A) was “negative” and the “RAWM (spatial memory)” value [1, 3] was “improved; also recorded: suppression of the deficits”. The “contextual fear memory (associative memory)” value [1, 3] was “improved; also recorded: suppression of the deficits”, the “dose dependence of behavior end points” value ([1]; Figure S2) was “dose dependent” and the “performance of WT mice” value ([1]; WT littermates, 2.5 mg/kg oral daily) was “did not affect”. The sensory threshold ([1]; control behavior) was “No difference”, the visible platform task ([1]; control behavior) was “did not influence; also recorded: No difference” and the cued fear memory ([1]; control behavior, hippocampus-independent) was “no effect; also recorded: No difference”. The open field tests ([1]; control behavior, locomotor activity and anxiety) was “did not influence; also recorded: No difference”, the half-life (in vivo) was over 180 min and the MDCK permeability classification (MDCK / BCRP) was “high cell permeability; also recorded: highly permeable”. For the same compound, the “percent recovery, second value” (MDCK / BCRP; MDCK, second of two values given 'respectively') was 67%, the BCRP substrate status (MDCK / BCRP; effect of 10 μM Ko143 on bidirectional flux) was “not a substrate; also recorded: not BCRP substrate” and the AMES test [2] was “negative”. For the same compound, the chemical stability (Chemical stability) was “chemically stable; also recorded: stable at pH (1–13), 24 h, 37 °C”, the MAO-B inhibition (MAO-B) was “negative” and the “functional GPCR off-target activity” value (166 GPCRs) was “no agonist or antagonist activity; also recorded: negative”.
